Values of other authors, collected in US6632827B2 (Sepracor Inc., priority 1996, dated 2003).

Assays:
[1] = co-administered ketoconazole
5HT4 receptors = biological target: T1, 5HT4 receptors (Mus musculus, UniProt P97288); details: cultured mouse embryo colliculi neurons; read-out: EC50 concentration, cAMP generation as endpoint for 5HT4 activity
T1 construct: Using cultured mouse embryo colliculi neurons and cAMP generation as an endpoint for designating 5HT4 activity; host or cells: cultured mouse embryo colliculi neurons

beta-adrenergic = details: S-enantiomer vs R-enantiomer

T1 sequence (P97288 whole entry): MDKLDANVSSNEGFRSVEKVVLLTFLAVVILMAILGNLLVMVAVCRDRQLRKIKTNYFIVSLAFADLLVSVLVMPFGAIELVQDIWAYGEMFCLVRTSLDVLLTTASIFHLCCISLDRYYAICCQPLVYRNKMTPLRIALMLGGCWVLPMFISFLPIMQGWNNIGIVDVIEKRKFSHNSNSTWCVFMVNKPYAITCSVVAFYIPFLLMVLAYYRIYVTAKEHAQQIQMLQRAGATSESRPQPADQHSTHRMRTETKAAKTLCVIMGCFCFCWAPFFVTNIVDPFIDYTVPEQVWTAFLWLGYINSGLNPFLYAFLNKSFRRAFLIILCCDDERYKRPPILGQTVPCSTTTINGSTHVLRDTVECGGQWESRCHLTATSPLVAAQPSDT

In the case of `COc1cc(N)c(Cl)cc1C(=O)NC1CCNCC1OC` (racemic) [(±) Norcisapride, 4-amino-5-chloro-N-(3-methoxy-4-piperidinyl)-2 methoxybenzamide], the “Share of the drug found in urine” value (urine of humans 72 hours after dosing of cisapride) is given as 50-80%.

In the case of `COc1cc(N)c(Cl)cc1C(=O)N[C@H]1CCN(CCCOc2ccc(F)cc2)C[C@H]1OC` (racemic) [(±) Cisapride, cis-4-amino-5-chloro-N-[1-[3-(4-fluorophenoxy)propyl]-3-methoxy-4-piperidinyl]-2-methoxybenzamide], the “Increase in steady-state plasma levels” value [1] is listed as 8 fold, the EC50 (5HT4 receptors) is listed as 70 nM and the “Bioavailability of the parent compound” value (oral administration to humans) is listed as 40-50%. The “Fraction of dose metabolized” value (oxidative N-dealkylation or aromatic hydroxylation) was “More than 90%”.

In the case of `CC(C)NCC(O)COc1cccc2ccccc12` (stereo not drawn) [propranolol], the “Potency of S-enantiomer relative to R-enantiomer” value (beta-adrenergic) is listed as 100 times.
